Experimental data published in US8710032B2, “Inhibitors of the mevalonate pathway of Streptococcus pneumoniae” (Northwestern University, priority 2006, dated 2014).
“Also recorded” adds a separate entry of the source. Where two headings read alike, the source gives them in different places.

Assays:
[1] = target: T1, mevalonate kinase (MK) (Streptococcus pneumoniae, UniProt A0A0H2UNK6); conditions: read-out: Ki (binding to the allosteric site of mevalonate kinase); S. pneumoniae MK; background, Andreassi et al. 2004; cited from earlier work
[2] = target: T1, mevalonate kinase (MK); experiment: Equilibrium binding of DPM to MK
[3] = target: T1, mevalonate kinase (MK); experiment: Initial-rate inhibition of S. pneumoniae mevalonate kinase; format: biochemical
Description: Regulation of the isoprenoid biosynthetic pathway in S. pneumoniae was discovered during an attempt to enzymatically synthesize DPM from ATP and mevalonate using MK and PMK. Individually, either enzyme is capable of quantitative conversion of substrate to product. However, when the enzymes are added simultaneously, the forward reaction decelerates rapidly and little product is formed. […] Thus, this nearly pure noncompetitive inhibitor binds at a site that is physically distinct from the substrate binding sites—an allosteric site. […] The stoichiometry was confirmed by NMR titration. […] Down-regulation of this pathway is quite specific for DPM.
(§1) The findings that mevalonate-pathway S. pneumoniae mutants cannot survive in mouse lung or serum validated this pathway as an antibiotic target in animal models. Acting on the hypothesis that the primary sequence differences of the mammalian and streptococcal MKs might produce different DPM-inhibition characteristics, the human enzyme was cloned, expressed, purified and tested for DPM inhibition. The effect of DPM on the initial rate of the human and streptococcal enzymes was assessed using samples with matched catalytic poise ([substrates]˜Km, equivalent Vm).
(§2) Several compounds were designed to inhibit DPM-DC and control cholesterol biosynthesis. In one such compound, each of the C6-methyl protons of mevalonate are replaced with fluorine (6,6,6-trifluoromevalonate, F3-mev). Given DPM inhibition of MK, and excellent inhibition of rat liver DPM-DC by F3-DPM (Ki=0.5 μM) it was hoped that F3-DPM might inhibit both MK and DPM-DC from S. pneumoniae, and, if so, be used as a bacteriostatic or bacteriocidal agent. […] Encouraged, F3-DPM was tested as an antibiotic against S. pneumoniae. To avoid the possible obstacles of phosphatase degradation of DPM and transporting a highly charged anion across the cell wall, a prodrug strategy that relies on conversion of F3-mev to F3-DPM in the cytosol was used. F3-mev conversion to F3-DPM and consequent inhibition of DPM-DC occurs in rat liver extracts. The linear and lactone forms of statins, which target an early step in the isoprenoid pathway, show widely different potencies; consequently, both forms of F3-mev were tested as inhibitors. Serial dilutions of F3-mev were added to Meuller-Hinton Broth, a horse-blood based medium, containing ˜7.5×10^7 cells of either an infectious (ATCC 49619) or non-infectious (R6) strain of S. pneumoniae. The cultures containing F3-mev were incubated for 24 hours at 35° C. and plated to assess viability. The linear form of F3-mev had little effect; confluent growth was observed on all plates; in contrast, the lactone is clearly a bacteriocide—less than 0.0001% of either strain survived at 100-200 μg/ml of the lactone. […]

[4] = target: T2, mammalian DPM decarboxylase (Homo sapiens, UniProt P53602); conditions: cited from earlier work; for Km: substrate of mammalian DPM decarboxylase
T2 sequence (P53602 1-400): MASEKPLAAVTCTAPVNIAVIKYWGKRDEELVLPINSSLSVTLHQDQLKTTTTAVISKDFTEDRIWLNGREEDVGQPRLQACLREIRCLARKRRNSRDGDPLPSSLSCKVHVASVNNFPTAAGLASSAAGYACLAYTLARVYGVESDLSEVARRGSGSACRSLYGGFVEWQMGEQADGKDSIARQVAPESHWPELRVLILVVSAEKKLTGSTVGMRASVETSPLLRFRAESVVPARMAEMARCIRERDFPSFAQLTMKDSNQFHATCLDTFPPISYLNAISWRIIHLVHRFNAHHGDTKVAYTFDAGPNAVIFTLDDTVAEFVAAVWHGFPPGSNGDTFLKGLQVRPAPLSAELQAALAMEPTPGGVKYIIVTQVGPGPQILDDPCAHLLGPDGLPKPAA

[5] = target: T3, DPM-DC (Streptococcus pneumoniae, UniProt A0A0H2UNP0); experiment: DPM binding to DPM-DC by intrinsic fluorescence
T3 sequence (A0A0H2UNP0 1-317): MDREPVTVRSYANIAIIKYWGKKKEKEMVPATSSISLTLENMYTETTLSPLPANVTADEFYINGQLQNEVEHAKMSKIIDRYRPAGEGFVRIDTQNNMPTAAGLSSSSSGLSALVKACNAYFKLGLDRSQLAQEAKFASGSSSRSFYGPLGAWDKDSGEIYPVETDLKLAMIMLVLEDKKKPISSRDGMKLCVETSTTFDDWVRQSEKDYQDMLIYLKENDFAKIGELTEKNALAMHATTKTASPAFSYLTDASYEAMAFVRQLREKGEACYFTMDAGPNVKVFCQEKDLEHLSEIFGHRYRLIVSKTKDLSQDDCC
Description: FIG. 5. DPM Binding to DPM-DC. Conditions: DPM-DC (0.10 μM); MgCl2 (1.0 mM); β-Me (2.0 mM); KCl (50 mM); Glycerol (0.5% v/v); Hepes (50 mM, pH 8.0); T=25 (±2)° C.
This spectroscopic handle can be used to determine the affinities of the inhibitors described in this proposal and to explore the mechanism of DPM-DC. […] As a tool to study mechanism, the DPM-induced fluorescence changes can monitor, by stopped-flow, the progress of the binding reactions. The concentration dependencies of such measurements yield microscopic rate constants, which, in turn, provide ground and transition-state energetics for a particular step in the reaction coordinate. In favorable cases, fluorescence changes occur subsequent to binding as consequence of other structural changes that occur during the catalytic cycle—such is the case with DPM-DC. These changes can be assigned to bond-cleavage steps using by monitoring chemistry in the presteady-state by quenched-flow.

[6] = target: T4, human mevalonate kinase (Homo sapiens, UniProt Q03426); conditions: background; cited from earlier work
T4 construct: made in house

[7] = target: T4, human mevalonate kinase; experiment: DPM inhibition of human mevalonate kinase (initial rate); format: biochemical; conditions: at DPM concentrations that essentially completely inhibit the streptococcal system; [substrates]~Km
Description: as §1

[8] = target: T5, rat liver DPM-DC (Rattus norvegicus, UniProt Q62967); conditions: cited from earlier work
T5 construct: host or cells: rat liver
T5 sequence (Q62967 1-401): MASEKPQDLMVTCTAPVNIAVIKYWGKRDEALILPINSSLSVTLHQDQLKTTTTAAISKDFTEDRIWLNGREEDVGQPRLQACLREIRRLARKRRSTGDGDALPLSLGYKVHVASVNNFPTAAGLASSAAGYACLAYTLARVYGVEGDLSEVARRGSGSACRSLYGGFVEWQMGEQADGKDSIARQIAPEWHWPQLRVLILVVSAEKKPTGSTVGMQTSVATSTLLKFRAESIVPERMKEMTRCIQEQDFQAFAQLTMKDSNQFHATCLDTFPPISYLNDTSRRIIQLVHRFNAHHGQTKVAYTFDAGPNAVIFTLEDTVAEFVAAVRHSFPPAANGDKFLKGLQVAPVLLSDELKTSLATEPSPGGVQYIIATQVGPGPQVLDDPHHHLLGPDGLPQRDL

[9] = target: DPM-DC (Streptococcus pneumoniae, UniProt Q9FD53); experiment: Inhibition of S. pneumoniae DPM-DC; format: biochemical; conditions: DPM-DC from S. pneumoniae
[10] = system: S. pneumoniae (ATCC 49619, R6); experiment: Antibiotic test: broth culture, plated to assess viability; format: cell-based, Streptococcus pneumoniae; conditions: serial dilutions; 24 hours at 35° C.; ATCC 49619 or R6
Description: as §2, with “viability.” for “viability. The linear form of F3-mev had little effect; confluent growth was observed on all plates; in contrast, the lactone is clearly a bacteriocide—less than 0.0001% of either strain survived at 100-200 μg/ml of the lactone.”

[11] = target: T6, mevalonate kinase (Streptococcus pneumoniae, UniProt A0A0H2UNK6); experiment: Initial substrate results of analogues with mevalonate kinase (FIG. 8); format: biochemical; conditions: [ATP]=0.85 mM
T6 sequence (A0A0H2UNK6 1-292): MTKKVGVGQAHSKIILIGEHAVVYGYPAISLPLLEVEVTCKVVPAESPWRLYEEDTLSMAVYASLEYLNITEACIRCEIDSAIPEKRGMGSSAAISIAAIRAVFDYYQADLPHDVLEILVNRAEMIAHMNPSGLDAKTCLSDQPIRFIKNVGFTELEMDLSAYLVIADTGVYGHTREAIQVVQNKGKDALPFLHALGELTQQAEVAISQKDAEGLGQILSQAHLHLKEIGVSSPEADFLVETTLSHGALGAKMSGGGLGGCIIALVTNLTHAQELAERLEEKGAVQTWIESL
Description: FIG. 8. Initial substrate results [analogue] ranged from 2.0-2.5 mM, except #6 (4.2 mM) and #8 (6.2 mM).
A series of compounds related to compounds 4, 5, 23, and 25 can be synthesized as potential competitive or noncompetitive reversible inhibitors of MK and DPM-DC (See, e.g., FIGS. 6-7). The representative synthesis shown (Scheme 4a) is a modification of that shown in Scheme 4, and R is limited only by availability of the corresponding reagent and synthetic technique, as would be understood by those skilled in the art made aware of this invention (e.g., alkyl, vinyl, acetylenyl, aryl, heteroaryl, etc., via Grignard reaction with the corresponding magnesium bromide or chloride).

[12] = system: MK; conditions: producing 6-fluoroDPM; cited from earlier work
[13] = system: PMK; conditions: producing 6-fluoroDPM; cited from earlier work
[14] = target: T3, DPM-DC; conditions: cited from earlier work
[15] = system: incorporation of mevalonate into nonsaponifiable lipids; conditions: rat liver extracts; relative to F3-mev; cited from earlier work

T4 sequence (Q03426 whole entry): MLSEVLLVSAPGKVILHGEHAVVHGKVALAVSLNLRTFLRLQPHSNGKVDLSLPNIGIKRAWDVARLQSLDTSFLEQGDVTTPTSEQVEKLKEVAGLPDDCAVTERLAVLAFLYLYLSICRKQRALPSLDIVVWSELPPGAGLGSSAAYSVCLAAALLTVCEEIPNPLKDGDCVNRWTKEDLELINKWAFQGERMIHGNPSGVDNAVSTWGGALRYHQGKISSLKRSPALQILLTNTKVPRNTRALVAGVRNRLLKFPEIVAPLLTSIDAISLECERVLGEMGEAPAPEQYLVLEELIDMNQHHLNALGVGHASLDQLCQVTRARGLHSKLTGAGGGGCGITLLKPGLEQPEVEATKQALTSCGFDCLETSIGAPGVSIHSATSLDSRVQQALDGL
DPM-DC (Streptococcus pneumoniae, UniProt Q9FD53), sequence (Q9FD53 entry or part of it): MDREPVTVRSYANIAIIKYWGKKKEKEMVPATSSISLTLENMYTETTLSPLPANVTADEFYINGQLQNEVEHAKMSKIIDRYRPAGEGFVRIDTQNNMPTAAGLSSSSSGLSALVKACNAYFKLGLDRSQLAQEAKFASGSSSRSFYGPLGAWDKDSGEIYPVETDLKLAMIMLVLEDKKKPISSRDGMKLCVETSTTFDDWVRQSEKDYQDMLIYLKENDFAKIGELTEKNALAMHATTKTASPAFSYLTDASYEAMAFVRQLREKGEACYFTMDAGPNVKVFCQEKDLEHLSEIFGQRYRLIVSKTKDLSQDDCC

## C[C@@](O)(CCOP(=O)(O)OP(=O)(O)O)CC(=O)O [DPM, Diphosphomevalonate]
[1]
  Ki: 400 nM
[2]; Kd DPM, quoted for the NMR titration of MK
  Kd: 500 nM
[2]; affinity of DPM for apo (E) form of the enzyme, apo (E)
  Kd: 630 nM
[2]; affinity of DPM for ternary (E.AMPPNP.mev) form of the enzyme, ternary (E.AMPPNP.mev)
  Kd: 530 nM
[2]; enzyme is a dimer
  binding stoichiometry: 0.5 DPM/active site
[3]
  Ki: 500 nM
[3]; DPM bound to MK
  turnover reduced to: less than 0.5%
[3]; vs substrates
  inhibition mechanism (initial-rate study): noncompetitively
[4]
  Km: 15 µM
[5]
  Kd: 540 nM
[5]; on binding of DPM
  change in the intrinsic fluorescence of DPM-DC: 1.5 fold
[6]
  effect of DPM on human mevalonate kinase isozyme: not affected
[7]
  effect of DPM on human MK: virtually unaffected; also recorded: insensitive

## O=C(O)CC(O)(CCOP(=O)(O)OP(=O)(O)O)C(F)(F)F (stereo not drawn) [F3-DPM]
[8]; rat liver
  Ki: 500 nM
[9]
  Ki: 50 nM
[3]; MK from S. pneumoniae, read-out: Ki (MK)
  Ki: 570 nM

## CCC(O)(CCOP(=O)(O)OP(=O)(O)O)CC(=O)O (stereo not drawn) [compound 14]
[4]; read-out: Km
  Km: 33 µM
[4]; that of DPM
  kcat relative to DPM: 32%

## O=C(O)CC(O)(CCO)C(F)(F)F (stereo not drawn) [linear form of F3-mev, 6,6,6-trifluoromevalonate]
[10]
  effect on viability (growth on plates): little effect

## CC(O)(CCO)CC(=O)O (stereo not drawn) [mevalonate]
[11]
  kcat: 227 s^1

## O=C(O)CC(O)(CF)CCO (stereo not drawn) [mono-fluoro derivative, 6-Fluoromevalonic acid]
[12]
  substrate for MK (in words): substrate
[8]; rat liver extracts
  better inhibitor of DPM-DC (relative to F3 analogue): 50 fold
[13]
  substrate for PMK (in words): substrate
[14]; mono-fluoro substitution at C6
  decrease in turnover: 2500 fold
[14]; substrate of DPM-DC
  turnover: 0.19 min⁻¹
[14]; vs DPM
  turnover relative to the native compound: 0.04%
[15]
  more effective than F3-mev in inhibiting incorporation of mevalonate into nonsaponifiable lipids: 50 times
